Data on one sequence can be found in paper PMC9309159, “Identification of heptapeptides targeting a lethal bacterial strain in septic mice through an integrative approach” (Signal Transduction and Targeted Therapy, 2022).

The subject of assay [1] is CLP mice. The assay is described as follows: Survival of CLP mice. The class given is in vivo, C57BL/6 mice. The conditions noted are these: peptide 0.2 nmol/g i.v. 1 h after CLP; observed up to 168 h; Kaplan-Meier; n = 15. An excerpt: (§1) Wild-type C57 mice were intraperitoneally injected with MSI001 bacteria (6 × 10^6 CFU/g body weight) to reproduce a sepsis model. […] Normal saline (NS) was used as control. […] One hour after CLP modeling, the mice were intravenously injected with LL37 or VTK-LL37 peptide at a dosage of 0.2 nmol/g body weight. Equal volume of normal saline (NS) was used as control. […] The mice were intraperitoneally injected with MSI001 bacteria. One hour later, the mice were subjected to tail vein injection (TVI) with VTK-LL37 (VTK-LL37 group), LL37 (LL37 group) or an equivalent volume of NS (sepsis group). Wild-type mice without modeling were used as controls (control group). The blood bacteria were quantitated as colony forming units (CFU) 12 h after injection of bacteria. n = 8. *P < 0.05, compared to control; ^#P < 0.05, compared to sepsis group^; ΔP < 0.05, compared to LL37 group. Results are expressed as the median with range. d Suppression of VTK-LL37 on the production of HMGB1 in the blood of septic mice. […] Twelve hours after bacterial injection, HMGB1 in the serum was quantitated by ELISA. n = 8. *P < 0.05, compared to control; ^#P < 0.05, compared to sepsis group; ^ΔP < 0.05, compared to LL37 group^. Results are expressed as the mean ± SD. e, f Protective effect of VTK-LL37 against organ damage in mice subjected to bacterial injection. […]

In assay [2] the test system is HMGB1. In words: HMGB1 quantitation in serum of septic mice (ELISA). The class given is in vivo, C57BL/6 mice. The conditions noted are these: peptide by tail vein 1 h after bacterial injection; serum ELISA at 12 h; n = 8.
Description: as §1

Take “CVTKLGSLCVPGVGLLGDFFRKSKEKIGKEFKRIVQRIKDFLRNLVPRTES [VTK-LL37]”: in assay [1], the “survival of CLP mice” value was “significantly increased the survival of sepsis mice induced by CLP modeling”. Further, in assay [2], the “production of HMGB1 in serum of septic mice” value is listed as “significantly suppressed the production of HMGB1 in the serum of septic mice, which was superior to LL37”.
